Laboratory results: US12514938B2, “Fibroblast activation protein targeting peptides” (PERSPECTIVE THERAPEUTICS, INC., priority 2023, dated 2026)
*1 amine or outer side, *2 acyl side, *3 side chain or, on linkers, in order; H or OH if unused. Where a SMILES comes first, the peptide text is derived from it. Bridges are numbered along the chain shown (N, C = ends). The star is where a group is joined. X1 = NC(=O)CN1CCN(CC(=O)O)CCN(CC(=O)*)CCN(CC(=O)O)CC1; oXylylene = c1ccc(C[*:2])c(C[*:1])c1; PEG2 = NCCOCCOCCC(=O)O

Tests used:
[1] = target: T1, human prolyl endopeptidase (PREP) (Homo sapiens, UniProt P48147); assay: Enzyme inhibition assay, binding specificity of VMT-FAP-2-59 (Example 3); assay type: biochemical; settings: 50 μM Z-GP-AMC
T1 sequence (P48147 1-710): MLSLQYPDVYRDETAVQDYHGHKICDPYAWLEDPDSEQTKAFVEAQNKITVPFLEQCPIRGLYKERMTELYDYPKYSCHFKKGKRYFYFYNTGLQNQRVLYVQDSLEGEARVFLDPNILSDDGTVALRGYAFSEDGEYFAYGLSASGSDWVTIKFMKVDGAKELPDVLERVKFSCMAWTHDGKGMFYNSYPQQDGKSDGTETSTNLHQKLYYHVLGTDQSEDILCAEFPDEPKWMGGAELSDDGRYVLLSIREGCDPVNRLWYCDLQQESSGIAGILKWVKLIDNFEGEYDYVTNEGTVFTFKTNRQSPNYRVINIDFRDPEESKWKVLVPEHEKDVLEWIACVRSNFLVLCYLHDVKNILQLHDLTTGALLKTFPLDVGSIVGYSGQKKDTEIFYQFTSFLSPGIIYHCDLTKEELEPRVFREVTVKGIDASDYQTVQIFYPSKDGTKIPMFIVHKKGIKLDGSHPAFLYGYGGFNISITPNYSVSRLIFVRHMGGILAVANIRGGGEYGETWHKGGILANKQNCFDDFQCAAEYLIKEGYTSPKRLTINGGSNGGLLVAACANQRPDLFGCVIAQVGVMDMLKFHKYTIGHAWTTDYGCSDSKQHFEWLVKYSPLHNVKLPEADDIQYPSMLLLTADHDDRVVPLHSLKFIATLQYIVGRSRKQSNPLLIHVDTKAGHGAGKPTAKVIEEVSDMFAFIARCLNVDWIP
Method: (§1) The enzyme inhibition assay was performed to determine inhibitor constant (i.e., Ki) values against human FAP, mouse FAP, human dipeptidyl peptidase 4 (DPPIV) and human prolyl endopeptidase (PREP). Z-GP-AMC was used as substrate for human FAP, mouse FAP and human PREP. GP-AMC was used as substrate for human DPPIV. To perform the assay, VMT-FAP-2-59 at varying concentrations (i.e. 10^−6 to 10^−12) were incubated with 5 ng hFAP, 5 ng mFAP, 2.5 ng DPPIV, or 5 ng PREP in a black 96-well plate for 10 minutes at RT on a shaker plate. The substrate was added to give a final concentration of 50 μM for Z-GP-AMC and GP-AMC. The total reaction volume per well was 100 μL The reaction was allowed to incubate at RT on a shaker plate for 1 hour protected from light, and then fluorescence was read with a BioTek Synergy LX plate reader at an ex/em (360/40 and 460/40). Experiments were performed in at least duplicate. Buffer only, buffer/enzymes, buffer/substrate and enzyme only were included as controls. Data was plotted in GraphPad Prism and non-linear regression used to calculate IC50 values. Binding kinetics (Kd) of VMT-FAP-2-59 against human FAP, human DPPIV and human PREP were also determined by grating-coupled interferometry (GCI). hFAP, hDPPIV and hPREP proteins were fixed on PCH (N=3) chips or PCP (N=2). […] On PCP chips, binding affinity of VMT-FAP-2-29 to hFAP was determined from 39 pM to 20 nM. Binding affinity to hDPPIV and hPREP was determined at concentration from 39 pM to 50 nM.

[2] = target: human dipeptidyl peptidase 4 (DPPIV) (Homo sapiens, UniProt P27487); assay: Enzyme inhibition assay, binding specificity of VMT-FAP-2-59 (Example 3, substrate GP-AMC); assay type: biochemical; settings: 50 μM GP-AMC
Method: as §1, with “Binding affinity to hDPPIV and hPREP was determined at concentration from 39 pM to 50 nM.” left out

[3] = target: human DPPIV (Homo sapiens, UniProt P27487); assay: Grating-coupled interferometry (GCI) binding kinetics
Method: as §1

[4] = target: T2, human FAP (Homo sapiens, UniProt Q12884); assay: as above; settings: GCI on PCH/PCP chips
T2 sequence (Q12884 1-760): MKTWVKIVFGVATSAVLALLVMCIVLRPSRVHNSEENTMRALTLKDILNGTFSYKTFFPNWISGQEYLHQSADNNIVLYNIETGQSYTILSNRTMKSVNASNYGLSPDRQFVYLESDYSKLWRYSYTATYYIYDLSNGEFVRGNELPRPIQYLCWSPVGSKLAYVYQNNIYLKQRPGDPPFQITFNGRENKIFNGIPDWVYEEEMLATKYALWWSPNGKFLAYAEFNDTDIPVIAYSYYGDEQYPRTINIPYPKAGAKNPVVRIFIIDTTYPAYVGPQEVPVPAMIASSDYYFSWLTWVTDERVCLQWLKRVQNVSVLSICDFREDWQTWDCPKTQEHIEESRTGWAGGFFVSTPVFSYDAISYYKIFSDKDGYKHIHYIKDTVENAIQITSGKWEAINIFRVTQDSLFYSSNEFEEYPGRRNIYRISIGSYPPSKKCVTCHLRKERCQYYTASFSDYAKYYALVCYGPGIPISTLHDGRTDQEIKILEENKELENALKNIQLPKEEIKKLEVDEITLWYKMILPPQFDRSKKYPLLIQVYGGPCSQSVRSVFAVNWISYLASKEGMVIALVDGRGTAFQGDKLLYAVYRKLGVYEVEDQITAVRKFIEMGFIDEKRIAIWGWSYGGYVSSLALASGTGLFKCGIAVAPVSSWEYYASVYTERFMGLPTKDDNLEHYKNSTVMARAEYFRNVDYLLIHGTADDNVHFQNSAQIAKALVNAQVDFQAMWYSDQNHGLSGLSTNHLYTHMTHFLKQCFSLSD
Method: as §1

[5] = target: T3, human PREP (Homo sapiens, UniProt P48147); assay: as above
T3 sequence (P48147 1-710): T1 sequence (P48147 1-710)
Method: as §1

human DPPIV, sequence (P27487 whole entry): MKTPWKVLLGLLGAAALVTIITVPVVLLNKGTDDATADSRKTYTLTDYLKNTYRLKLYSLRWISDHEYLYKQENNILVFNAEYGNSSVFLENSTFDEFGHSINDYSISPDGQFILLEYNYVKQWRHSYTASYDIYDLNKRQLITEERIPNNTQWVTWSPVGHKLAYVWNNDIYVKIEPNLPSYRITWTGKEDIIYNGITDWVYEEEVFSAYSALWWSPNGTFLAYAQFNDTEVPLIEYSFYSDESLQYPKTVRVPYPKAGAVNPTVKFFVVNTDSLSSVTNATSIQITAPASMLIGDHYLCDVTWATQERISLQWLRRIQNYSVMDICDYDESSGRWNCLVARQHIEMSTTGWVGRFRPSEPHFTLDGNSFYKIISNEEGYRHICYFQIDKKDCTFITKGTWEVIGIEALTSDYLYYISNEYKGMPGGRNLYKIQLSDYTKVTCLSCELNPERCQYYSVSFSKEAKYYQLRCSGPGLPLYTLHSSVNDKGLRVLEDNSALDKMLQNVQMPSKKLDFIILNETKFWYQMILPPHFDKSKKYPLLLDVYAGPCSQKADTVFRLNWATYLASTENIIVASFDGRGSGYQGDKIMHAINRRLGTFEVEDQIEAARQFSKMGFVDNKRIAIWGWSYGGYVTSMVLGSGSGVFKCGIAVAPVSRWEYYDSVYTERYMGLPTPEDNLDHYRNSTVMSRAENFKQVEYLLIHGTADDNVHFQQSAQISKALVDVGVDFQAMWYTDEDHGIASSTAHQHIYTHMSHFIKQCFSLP
human dipeptidyl peptidase 4 (DPPIV), sequence (P27487 whole entry): as above

**Q.** How did the Ki [1] turn out when `C[C@@H](O)[C@@H]1NC(=O)[C@@H](NC(=O)CCOCCOCCNC(=O)CN2CCN(CC(=O)O)CCN(CC(N)=O)CCN(CC(=O)O)CC2)CSCc2ccccc2CSC[C@@H](C(N)=O)NC(=O)[C@H](Cc2c[nH]c3ccccc23)NC(=O)[C@H](Cc2c[nH]c3ccccc23)NC(=O)[C@H](CCC(N)=O)NC(=O)[C@H](CCC(=O)O)NC(=O)[C@H](Cc2c[nH]c3ccccc23)NC(=O)[C@@H]2CCCN2C1=O` [VMT-FAP-2-59, PSC-PEG2-[C(oXdB)TPWEQWWC]-NH2] ({X1-PEG2}-CTPWEQWWC-NH2; linker 1-9 via oXylylene) was run?
**A.** Its Ki is 152 nM.

**Q.** And the Ki [2]?
**A.** Its Ki is “No binding”.

**Q.** And the Kd [3]?
**A.** The Kd was “No binding”.

**Q.** What about the Kd [4] of the same molecule?
**A.** The Kd was 2 nM.

**Q.** And the Kd [5]?
**A.** Its Kd is “No binding”.
